We go through 16 molecules from US11634447B2 (priority 2012, dated 2023).

pIC50, pKd: −log10 of the molar value. Several values for one entry are separate records, joined by “and”; a condition that tells them apart may be missing. Equal entries are not always repeated. Where two headings read alike, the source gives them in different places. A value given as a limit tells only on which side of the number the result lay.

Test [1] concerns bacterial strain LF82 binding to the glycoprotein BSA-(Mannose)3. In words: Bacterial Binding Assay (BBA). Format: cell-based, Escherichia coli. Particulars: read-out: Bacterial Binding Assay IC50, LF82/Luciferase strain binding to BSA-(Man)3 coated plates, luminescence. Put shortly:
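Inhibition of LF82/luciferase E. coli adhesion is read as luminescence after washing off unbound cells. Compound and bacteria (10^7 per well) are co-incubated 40-75 min at room temperature on wells coated with 0.5-2 μg/mL BSA-(Man)3, with BSA-only wells as background; IC50 values derived.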

In a further test the target is T1, FimH-CRD (Escherichia coli, UniProt P08191).
T1 construct: The first 177 amino acids of the FimH protein are expressed as a fusion protein; thrombin tag (printed as 'fusion protein with thrombin') (cleaved yes); made in house; host or cells: bacteria (pET21b plasmid)
T1 sequence (P08191 22-177): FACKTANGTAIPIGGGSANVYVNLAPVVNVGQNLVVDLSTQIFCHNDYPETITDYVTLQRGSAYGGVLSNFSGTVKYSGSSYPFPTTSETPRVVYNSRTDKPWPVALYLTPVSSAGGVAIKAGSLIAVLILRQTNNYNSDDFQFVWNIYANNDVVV
The test can be described thus: Competitive binding assay by fluorescence polarization, assay 1 (compounds prepared by manual dilution). Also on record: species or system E. coli. Here is the method:
The first 177 amino acids of the FimH protein are expressed as a fusion protein with thrombin in a pET21b plasmid in bacteria. This FimH protein sequence contains the carbohydrate recognition domain (CRD) and shall be termed FimH-CRD. Following bacterial expression of the protein, the FimH-CRD protein is purified to homogeneity and the thrombin tag removed by protease cleavage. A competitive binding assay by fluorescence polarization is performed using 5 nM of the Alexa 647 mannoside probe and 60 nM of the FimH-CRD. The samples are assayed in a low volume 384 well microtiter plate in a final volume of 20 μl. The final assay buffer conditions are the following, 50 mM Tris-Cl, ph 7.0, 100 mM NaCl, 1 mM EDTA, 5 mM β-mercaptoethanol, 0.05% BSA and 2.5% DMSO. Two assays are performed for FimH, termed assay 1 or assay 2. The assay conditions are the same for both assays except the following: assay 1 has compounds prepared by manual dilution in a serial dilution factor with 12-point dose response while assay 2 has compounds prepared by a robotics system also through a serial dilution factor (12 point dose response) and initially prepared in duplicate in 384 well-Corning polypropylene round bottom plates. The assay 2 plates have compound which is then frozen and must be thawed prior to use. Initially the Alexa 647 probe and the FimH-CRD are added to the assay buffer and then 0.5 μl of test compound (assay 1 or 2) between 0.4 nM to 75 μM final concentration are added (12 point titration with 3-fold serial dilution). Control wells for the Alexa 647 probe are prepared with the same conditions except for the addition of the FimH-CRD protein. Plates are then incubated for 5 hrs at room temperature in the dark and under humid conditions to prevent drying. Plates are read using the SpectraMax Paradigm multi-mode plate reader and the appropriate fluorescent polarization detection cartridge (Alexa-647).
Alexa 647 mannoside probe is prepared using the similar procedure reported for FAM mannoside (Han, Z. et. al., 2010, J. Med. Chem., 53, 4779) and is described in the scheme below.
To a blue colored stirred solution of (2S,3S,4S,5S,6R)-2-(4-aminobutoxy)-6-(hydroxymethyl)tetrahydropyran-3,4,5-triol (2.21 mg, 0.009 mmol) and the (2E)-2-[(2E,4E)-5-[3,3-dimethyl-5-sulfonato-1-(3-sulfonatopropyl)indol-1-ium-2-yl]penta-2,4-dienylidene]-3-[6-(2,5-dioxopyrrolidin-1-yl)oxy-6-oxo-hexyl]-3-methyl-1-(3-sulfonatopropyl)indoline-5-sulfonate (Potassium Ion (3)) (4.9 mg, 0.0044 mmol) in DMF (44 μL) is added Et3N (5.4 mg, 7.0 μL, 0.053 mmol) at RT. The solution is stirred at room temperature over night, concentrated, dissolved in water and purified on 12 g C-18 silica gel cartridge on Isolera system using acetonitrile in water (0 to 40%, 10 CV) and followed by lyophilization to afford Alexa 647 mannoside probe (3.3 mg, 34%) as deep blue solid.
The Kd values of the compounds are determined from dose response curves using twelve concentrations per compound in duplicate. Curves are fitted to data points using Fluorescence Polarization competitive displacement analysis, and Kds are interpolated from the resulting curves using GraphPad Prism software, version […] (GraphPad software Inc., San Diego, Calif., USA).
(In general: Fluorescence polarisation rises when a labelled molecule tumbles more slowly, as on binding a larger partner.)

The mark [2] stands for this setting: Assay 1 Kd, 5 nM Alexa 647 mannoside probe, 60 nM FimH-CRD, replicate values in one cell.
Where [3] appears, read: read-out: Assay 1 Kd, 5 nM Alexa 647 mannoside probe, 60 nM FimH-CRD, replicate values in one cell.

For `OC[C@H]1O[C@H](c2cccc([C@H]3O[C@H](CO)[C@@H](O)[C@H](O)[C@@H]3O)c2)[C@@H](O)[C@@H](O)[C@@H]1O` [Compound 2], the pIC50 in test [1] is 5.31. Besides, the pKd at FimH-CRD (setting [2]) was 6.90 and 7.21.
On to `OC[C@H]1O[C@H](n2cc(-c3cccc(-c4cn([C@H]5O[C@H](CO)[C@@H](O)[C@H](O)[C@@H]5O)nn4)c3)nn2)[C@@H](O)[C@@H](O)[C@@H]1O` [Compound 19, ((2R,3S,4S,5S,6S)-2-(Hydroxymethyl)-6-[4-[3-[1-[(2S,3S,4S,5S,6R)-3,4,5-trihydroxy-6-(hydroxymethyl)tetrahydropyran-2-yl]triazol-4-yl]phenyl]triazol-1-yl]tetrahydropyran-3,4,5-triol)], for which, in test [1], the pIC50 is 6.37. Further, the pKd at FimH-CRD (setting [2]) is 8.22 and > 8.30.
`OC[C@H]1O[C@H](C/C=C/c2ccc(/C=C/C[C@H]3O[C@H](CO)[C@@H](O)[C@H](O)[C@@H]3O)c(Cl)c2)[C@@H](O)[C@@H](O)[C@@H]1O` [Compound 29, ((2R,3S,4R,5S,6R)-2-[(E)-3-[3-Chloro-4-[(E)-3-[(2R,3S,4R,5S,6R)-3,4,5-trihydroxy-6-(hydroxymethyl)tetrahydropyran-2-yl]prop-1-enyl]phenyl]allyl]-6-(hydroxymethyl)tetrahydropyran-3,4,5-triol)]: in test [1], the pIC50 was 5.89. For the same molecule, on FimH-CRD (setting [2]), the pKd is 8.22 and 8.10.
With `COc1cc(/C=C/C[C@H]2O[C@H](CO)[C@@H](O)[C@H](O)[C@@H]2O)c(OC)cc1/C=C/C[C@H]1O[C@H](CO)[C@@H](O)[C@H](O)[C@@H]1O` [Compound 30, ((2R,3S,4R,5S,6R)-2-[(E)-3-[2,5-Dimethoxy-4-[(E)-3-[(2R,3S,4R,5S,6R)-3,4,5-trihydroxy-6-(hydroxymethyl)tetrahydropyran-2-yl]prop-1-enyl]phenyl]allyl]-6-(hydroxymethyl)tetrahydropyran-3,4,5-triol)], the pIC50 in test [1] is 6.52. Further, on FimH-CRD (setting [2]), the pKd is 8.15 and > 8.30.
Regarding `OC[C@H]1O[C@H](c2cc([C@H]3O[C@H](CO)[C@@H](O)[C@H](O)[C@@H]3O)cc(C(F)(F)F)c2)[C@@H](O)[C@@H](O)[C@@H]1O` [Compound 3], the pKd at FimH-CRD (setting [2]) was 7.29 and 7.40.
In the case of `C#CCN(Cc1cn([C@H]2O[C@H](CO)[C@@H](O)[C@H](O)[C@@H]2O)nn1)Cc1cn([C@H]2O[C@H](CO)[C@@H](O)[C@H](O)[C@@H]2O)nn1` [Compound 20], the pKd on FimH-CRD (setting [2]) is 7.24 and 7.02.
Regarding `OC[C@H]1O[C@H](C/C=C/c2ccc(/C=C/C[C@H]3O[C@H](CO)[C@@H](O)[C@H](O)[C@@H]3O)c(F)c2)[C@@H](O)[C@@H](O)[C@@H]1O` [Compound 28], the pIC50 in test [1] is 6.11. Moreover, the pKd at FimH-CRD (setting [2]) and at FimH-CRD (setting [3]) was over 8.30 throughout.
As to `OC[C@H]1O[C@H](C/C=C/c2ccc(/C=C/C[C@H]3O[C@H](CO)[C@@H](O)[C@H](O)[C@@H]3O)cc2)[C@@H](O)[C@@H](O)[C@@H]1O` [Compound 24, ((2R,3S,4R,5S,6R)-2-(Hydroxymethyl)-6-[(E)-3-[4-[(E)-3-[(2R,3S,4R,5S,6R)-3,4,5-trihydroxy-6-(hydroxymethyl)tetrahydropyran-2-yl]prop-1-enyl]phenyl]allyl]tetrahydropyran-3,4,5-triol)], the pIC50 in test [1] was 6.19. For the same molecule, the pKd on FimH-CRD (setting [2]) and at FimH-CRD (setting [3]) was over 8.30 each time.
Take `O=C(NCCNC(=O)c1cccc([C@H]2O[C@H](CO)[C@@H](O)[C@H](O)[C@@H]2O)c1)c1cccc([C@H]2O[C@H](CO)[C@@H](O)[C@H](O)[C@@H]2O)c1` [Compound 8, (R,R,S,R,S)-N,N′-(Ethane-1,2-diyl)bis(3-((2R,3S,4R,5S,6R)-3,4,5-trihydroxy-6-(hydroxymethyl)tetrahydro-2H-pyran-2-yl)benzamide)]: the pKd at FimH-CRD (setting [2]) was 7.80 and 7.72.
With `N#Cc1cc(/C=C/C[C@H]2O[C@H](CO)[C@@H](O)[C@H](O)[C@@H]2O)ccc1/C=C/C[C@H]1O[C@H](CO)[C@@H](O)[C@H](O)[C@@H]1O` [Compound 33, (2,5-Bis[(E)-3-[(2R,3S,4R,5S,6R)-3,4,5-trihydroxy-6-(hydroxymethyl)tetrahydropyran-2-yl]prop-1-enyl]benzonitrile)], in test [1], the pIC50 was 6.41. Besides, the pKd on FimH-CRD (setting [2]) and at FimH-CRD (setting [3]) was over 8.30 each time.
For the molecule `O=C(NCCOCCOCCNC(=O)c1cccc([C@H]2O[C@H](CO)[C@@H](O)[C@H](O)[C@@H]2O)c1)c1cccc([C@H]2O[C@H](CO)[C@@H](O)[C@H](O)[C@@H]2O)c1` [Compound 15, (R,R,S,R,S)-N,N′-((Ethane-1,2-diylbis(oxy))bis(ethane-2,1-diyl))bis(3-((2R,3S,4R,5S,6R)-3,4,5-trihydroxy-6-(hydroxymethyl)tetrahydro-2H-pyran-2-yl)benzamide)], the pKd at FimH-CRD (setting [2]) is 7.96 and 7.82.
Consider `COC(=O)c1cc(/C=C/C[C@H]2O[C@H](CO)[C@@H](O)[C@H](O)[C@@H]2O)ccc1/C=C/C[C@H]1O[C@H](CO)[C@@H](O)[C@H](O)[C@@H]1O` [Compound 26, (Methyl 2,5-bis[(E)-3-[(2R,3S,4R,5S,6R)-3,4,5-trihydroxy-6-(hydroxymethyl)tetrahydropyran-2-yl]prop-1-enyl]benzoate)], for which the pIC50 in test [1] is 6.07. For the same molecule, the negative-log Kd (pKd) at FimH-CRD (setting [2]) and at FimH-CRD (setting [3]) was over 8.30 each time.
On to `OC[C@H]1O[C@H](n2cc(-c3ccc(-c4cn([C@H]5O[C@H](CO)[C@@H](O)[C@H](O)[C@@H]5O)nn4)cc3)nn2)[C@@H](O)[C@@H](O)[C@@H]1O` [Compound 18, ((2R,3S,4S,5S,6S)-2-(Hydroxymethyl)-6-[4-[4-[1-[(2S,3S,4S,5S,6R)-3,4,5-trihydroxy-6-(hydroxymethyl)tetrahydropyran-2-yl]triazol-4-yl]phenyl]triazol-1-yl]tetrahydropyran-3,4,5-triol)], for which, on FimH-CRD (setting [2]), the pKd is 5.97 and 5.99.
As for `Cc1cc(/C=C/C[C@H]2O[C@H](CO)[C@@H](O)[C@H](O)[C@@H]2O)ccc1/C=C/C[C@H]1O[C@H](CO)[C@@H](O)[C@H](O)[C@@H]1O` [Compound 27, ((2R,3S,4R,5S,6R)-2-(Hydroxymethyl)-6-[(E)-3-[3-methyl-4-[(E)-3-[(2R,3S,4R,5S,6R)-3,4,5-trihydroxy-6-(hydroxymethyl)tetrahydropyran-2-yl]prop-1-enyl]pheny]allyl]tetrahydropyran-3,4,5-triol)], in test [1], the pIC50 is 6.10. Besides, the pKd on FimH-CRD (setting [2]) and on FimH-CRD (setting [3]) was over 8.30 in each case.
As for `OC[C@H]1O[C@H](c2ccc(-c3cn([C@H]4O[C@H](CO)[C@@H](O)[C@H](O)[C@@H]4O)nn3)cc2)[C@@H](O)[C@@H](O)[C@@H]1O` [Compound 21, ((2R,3S,4R,5S,6R)-2-(Hydroxymethyl)-6-(4-(1-((2S,3S,4S,5S,6R)-3,4,5-trihydroxy-6-(hydroxymethyl)tetrahydro-2H-pyran-2-yl)-1H-1,2,3-triazol-4-yl)phenyl)tetrahydro-2H-pyran-3,4,5-triol)], on FimH-CRD (setting [2]), the Kd was < 5 nM (2×) and 9 nM.
For `O=[N+]([O-])c1cc(/C=C/C[C@H]2O[C@H](CO)[C@@H](O)[C@H](O)[C@@H]2O)ccc1/C=C/C[C@H]1O[C@H](CO)[C@@H](O)[C@H](O)[C@@H]1O` [Compound 32, ((2R,3S,4R,5S,6R)-2-(Hydroxymethyl)-6-[(E)-3-[3-nitro-4-[(E)-3-[(2R,3S,4R,5S,6R)-3,4,5-trihydroxy-6-(hydroxymethyl)tetrahydropyran-2-yl]prop-1-enyl]phenyl]allyl]tetrahydropyran-3,4,5-triol)], in test [1], the pIC50 is 6.47. The negative logarithm of the Kd (pKd) at FimH-CRD (setting [2]) and on FimH-CRD (setting [3]) was over 8.30 each time.

By pKd is commonly meant the Kd on a negative log10 scale, so that one unit is a factor of ten. Usually Kd stands for the free concentration of one partner at which half of the binding sites on the other are occupied at equilibrium, for simple one-to-one binding. Low values mean a tighter complex, high ones a looser complex.
